Laboratory results published in patent US20230071840A1, “HETEROCYCLIC GLP-1 AGONISTS” (Gasherbrum Bio, Inc., priority 2020, published 2023).
Where two headings read alike, the source gives them in different places.

Biological target: GLP-1 Receptor (Homo sapiens, UniProt P43220)
Test: GLP-1R agonist cAMP stimulation assay (HEK293/GLP1R/CRE-LUC cells, cAMP dynamic 2 kit)
Format: cell-based
Conditions: HEK293/CRE-Luc cell line stably expressing the GLP-1 Receptor, 30 min incubation at 37° C.
In short: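 HEK293/CRE-Luc cells stably expressing human GLP-1R stimulated 30 min at 37 °C, 5% CO2. cAMP detected with HTRF cAMP-d2/anti-cAMP cryptate reagents after 1 h at room temperature; % activity normalised between vehicle and maximal control.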

[1] = read-out: GLP1R cAMP Stimulation DR: EC50

GLP-1 Receptor, sequence (P43220 24-463, species assumed): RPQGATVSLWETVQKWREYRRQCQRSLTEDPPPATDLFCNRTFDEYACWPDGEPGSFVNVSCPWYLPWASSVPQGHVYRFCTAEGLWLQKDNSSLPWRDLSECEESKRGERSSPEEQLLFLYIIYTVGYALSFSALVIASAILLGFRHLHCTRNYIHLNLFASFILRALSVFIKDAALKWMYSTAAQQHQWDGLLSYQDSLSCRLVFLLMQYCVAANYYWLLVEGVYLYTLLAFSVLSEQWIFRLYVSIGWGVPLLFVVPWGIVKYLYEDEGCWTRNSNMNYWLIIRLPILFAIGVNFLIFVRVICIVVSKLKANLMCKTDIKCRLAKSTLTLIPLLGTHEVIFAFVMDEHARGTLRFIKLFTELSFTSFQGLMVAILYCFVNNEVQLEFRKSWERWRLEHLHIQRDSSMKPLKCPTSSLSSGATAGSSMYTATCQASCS

SMILES | EC50 [1] [nM] | EC50 (read-out: GLP1R cAMP Stimulation DR: pEC50 (converted)) [nM]
Clc1ccc(Cc2nccc(OC3CCN(Cc4nc5ccc(-c6nnn[nH]6)nc5n4C[C@@H]4CCO4)CC3)n2)cc1 [Compound 199a, (S)-2-((4-((2-(4-chlorobenzyl)pyrimidin-4-yl)oxy)piperidin-1-yl)methyl)-3-(oxetan-2-ylmethyl)-5-(1H-tetrazol-5-yl)-3H-imidazo[4,5-b]pyridine] | 0.95 | 1
NC(=O)c1ccc2nc(CN3CCC(Oc4ccnc(Cc5ccc(Cl)cc5)n4)CC3)n(C[C@@H]3CCO3)c2n1 [Compound 200a, (S)-2-((4-((2-(4-chlorobenzyl)pyrimidin-4-yl)oxy)piperidin-1-yl)methyl)-3-(oxetan-2-ylmethyl)-3H-imidazo[4,5-b]pyridine-5-carboxamide] | 85 | –
O=C(O)c1ccc2nc(CN3CC4CC(Oc5ccnc(Cc6ccc(Cl)cc6)n5)CC4C3)n(C[C@@H]3CCO3)c2n1 (stereo partly drawn) [Compound 201a, 2-{[5-({2-[(4-chlorophenyl)methyl]pyrimidin-4-yl}oxy)-octahydrocyclopenta[c]pyrrol-2-yl]methyl}-3-{[(2S)-oxetan-2-yl]methyl}-3H-imidazo[4,5-b]pyridine-5-carboxylic acid] | 360 | –
